In the test the target is FP receptor (Homo sapiens (Human), UniProt P43088). Description: In vitro test of inhibition of human FP receptor activity (PGF2α-induced calcium flux in FP-expressing CHEM1 cells). Type of test: cell-based. Particulars: PGF2α-induced (2 nM) calcium flux in FP-expressing CHEM1 cells; some as mean values from multiple determinations. From the text: Table 1 below lists the IC50 values from this assay for individual working examples of the invention (some as mean values from multiple independent individual determinations): […]
Sequence of FP receptor (P43088 whole entry): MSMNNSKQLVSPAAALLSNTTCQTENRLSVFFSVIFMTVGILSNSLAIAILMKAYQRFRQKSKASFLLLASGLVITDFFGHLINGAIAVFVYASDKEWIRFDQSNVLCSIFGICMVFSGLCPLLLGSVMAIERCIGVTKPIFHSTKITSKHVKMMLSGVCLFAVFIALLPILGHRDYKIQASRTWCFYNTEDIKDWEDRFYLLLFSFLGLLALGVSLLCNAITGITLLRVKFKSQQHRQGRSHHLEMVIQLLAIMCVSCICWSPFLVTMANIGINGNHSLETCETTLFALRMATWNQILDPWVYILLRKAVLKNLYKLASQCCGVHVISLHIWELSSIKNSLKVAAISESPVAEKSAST
In general terms: Calcium flux is commonly read through the fluorescence of an indicator in the cells.
By IC50 is commonly meant the point on the concentration scale where inhibition reaches its midpoint. Turning to `Cc1cccc(C(CNC(=O)c2c(C)c(-c3ccccc3)nc3ccc(Br)cc23)C(=O)O)c1` (racemic) [Example 50, (+/−)-3-{[(6-Bromo-3-methyl-2-phenylquinolin-4-yl)carbonyl]amino}-2-(3-methylphenyl)propanoic Acid], the IC50 was 79 nM. Consider `CCOc1ccccc1C(CNC(=O)c1c(C)c(-c2ccccc2)nc2ccc(Br)cc12)CC(=O)O` (single isomer, unassigned; (-)) [Example 130, (−)-4-{[(6-Bromo-3-methyl-2-phenylquinolin-4-yl)carbonyl]amino}-3-(2-ethoxyphenyl)butanoic Acid], for which the IC50 was found to be 320 nM. As to `Cc1c(-c2ccccc2)nc2ccc(Br)cc2c1C(=O)NCC(CCC(=O)O)c1c(Cl)ccc(F)c1F` (single isomer, unassigned; (+)) [Example 202, (+)-5-{[(6-Bromo-3-methyl-2-phenylquinolin-4-yl)carbonyl]amino}-4-(6-chloro-2,3-difluorophenyl)pentanoic Acid], the IC50 was determined as 6.2 nM. Turning to `Cc1c(-c2ccccc2)nc2ccc(Br)cc2c1C(=O)NCC(C(=O)O)c1cccc(Cl)c1` (single isomer, unassigned; (-)) [Example 48, (−)-3-{[(6-Bromo-3-methyl-2-phenylquinolin-4-yl)carbonyl]amino}-2-(3-chlorophenyl)propanoic Acid], the IC50 came to 33 nM. Regarding `Cc1c(-c2ccccc2)nc2ccc(Br)cc2c1C(=O)NCC(CCC(=O)O)c1c(Cl)ccc(Cl)c1Cl` (racemic) [Example 234, (+/−)-5-{[(6-Bromo-3-methyl-2-phenylquinolin-4-yl)carbonyl]amino}-4-(2,3,6-trichlorophenyl)pentanoic Acid], the IC50 turned out to be 7.2 nM. Consider `Cc1c(-c2ccccc2)nc2ccc(Br)cc2c1C(=O)NCC(CC(=O)O)c1ccccc1C(F)(F)F` (single isomer, unassigned; (-)) [Example 107, (−)-4-{[(6-Bromo-3-methyl-2-phenylquinolin-4-yl)carbonyl]amino}-3-[2-(trifluoromethyl)phenyl]butanoic Acid], for which the IC50 amounted to 51 nM. Turning to `Cc1c(-c2ccccc2)nc2ccc(Br)cc2c1C(=O)NCC(CCC(=O)O)c1cc(F)cc(F)c1F` (racemic) [Example 231, (+/−)-5-{[(6-Bromo-3-methyl-2-phenylquinolin-4-yl)carbonyl]amino}-4-(2,3,5-trifluorophenyl)pentanoic Acid], the IC50 turned out to be 22 nM. To `COc1cccc(F)c1C(CNC(=O)c1c(C)c(-c2ccccc2)nc2ccc(Br)cc12)C(=O)O` (racemic) [Example 56, (+/−)-3-{[(6-Bromo-3-methyl-2-phenylquinolin-4-yl)carbonyl]amino}-2-(2-fluoro-6-methoxyphenyl)propanoic Acid] belongs 21 nM; to `Cc1c(-c2ccccc2)nc2ccc(Br)cc2c1C(=O)NCC(c1ccccc1Cl)C(C)(C)C(=O)O` (single isomer, unassigned) [Example 113, 4-{[(6-Bromo-3-methyl-2-phenylquinolin-4-yl)carbonyl]amino}-3-(2-chlorophenyl)-2,2-dimethylbutanoic Acid], 62 nM; to `COc1ccccc1C(O)(CNC(=O)c1c(C)c(-c2ccccc2)nc2ccc(Br)cc12)C(=O)O` (single isomer, unassigned; (-)) [Example 54, (−)-3-{[(6-Bromo-3-methyl-2-phenylquinolin-4-yl)carbonyl]amino}-2-hydroxy-2-(2-methoxyphenyl)propanoic Acid], 500 nM.

Turning to `Cc1c(-c2ccccc2)nc2ccc(Br)cc2c1C(=O)NCC(C(=O)O)c1ccccc1` (single isomer, unassigned; (-)) [Example 2, (−)-3-{[(6-Bromo-3-methyl-2-phenylquinolin-4-yl)carbonyl]amino}-2-phenylpropanoic Acid], the IC50 is 160 nM. As for `COc1ccccc1[C@H](CNC(=O)c1c(C)c(-c2ccccc2)nc2ccc(Br)cc12)N1CCC(C(=O)O)C1` (stereo partly drawn) [compound 247], the IC50 was found to be 7.2 nM.

Values taken from patent US11136296B2, “Substituted N-arylethyl-2-arylquinoline-4-carboxamides and use thereof” (Bayer Aktiengesellschaft, priority 2017, dated 2021).
